The values below come from PubChem BioAssay (NCI).

Some test systems named below: COLO 205 colon; OVCAR-5 ovarian; OVCAR-3 ovarian; SNB-75 CNS; TK-10 renal; HCC-2998 colon; SK-MEL-28 melanoma; UACC-62 melanoma; NCI/ADR-RES ovarian.
Assay in all cases: inhibition of tumour cell growth, NCI panel, 48 h

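The compound was tested at five concentrations on cells cultured in 96-well plates, with a 48-hour exposure period. GI50: concentration for 50% inhibition of growth. TGI: total growth inhibition.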

`O=C1OC(c2ccccc2)=N/C1=C/N1CCCC1C(=O)O` (centres undefined): the TGI with COLO 205 colon, in the assay on OVCAR-5 ovarian, in the assay on OVCAR-3 ovarian, with SNB-75 CNS, in the assay on TK-10 renal and with HCC-2998 colon was over 100 µM in each case. In addition, the TGI in the assay with SK-MEL-28 melanoma and with UACC-62 melanoma was over 100 µM throughout.
Consider `CN(CCN(C)C(=O)CCn1ccc(=O)[nH]c1=O)C(=O)CCn1ccc(=O)[nH]c1=O`, for which the TGI with COLO 205 colon, with OVCAR-5 ovarian, in the assay with OVCAR-3 ovarian, with SNB-75 CNS, with TK-10 renal and in the assay with HCC-2998 colon was over 100 µM throughout. Besides, the TGI in the assay on SK-MEL-28 melanoma and in the assay with UACC-62 melanoma was over 100 µM each time.
Turning to `COc1ccc(N2C(=O)C(N3C(=O)C=CC3=O)C2C=O)cc1` (centres undefined), the TGI in the assay on COLO 205 colon, in the assay with OVCAR-5 ovarian, in the assay with OVCAR-3 ovarian, in the assay on SNB-75 CNS, with TK-10 renal and in the assay on HCC-2998 colon was over 100 µM in each case. The TGI in the assay with SK-MEL-28 melanoma and in the assay on UACC-62 melanoma was over 100 µM in each case.
For the compound `CC1(C)CC2(C)OC(=N)C1(C#N)C2(C#N)C#N` (centres undefined), the TGI in the assay on COLO 205 colon came to 14.9 µM; in the assay on OVCAR-5 ovarian, 27.3 µM; with TK-10 renal it was 22.7 µM; with HCC-2998 colon, 24.4 µM; with NCI/ADR-RES ovarian, 29.5 µM; with UACC-62 melanoma, 24.9 µM.
On to `CCOC(=O)c1c(-c2ccc(OC)c(O)c2)c(C#N)c(=S)n(C2OC(CO)C(O)C(O)C2O)c1-c1ccccc1` (centres undefined), for which the TGI in the assay with COLO 205 colon, in the assay with HCC-2998 colon, in the assay on NCI/ADR-RES ovarian, with SK-MEL-28 melanoma and in the assay with UACC-62 melanoma was over 100 µM in each case.
As for `c1cc2ccc1CNCCN1CCNCc3ccc(cc3)Oc3ccc(cc3)CNCCN(CCNCc3ccc(cc3)O2)CCNCc2ccc(cc2)Oc2ccc(cc2)CNCC1`, the GI50 was 1650 nM with OVCAR-3 ovarian; 1620 nM in the assay with TK-10 renal; 659 nM with HCC-2998 colon; 16.7 µM in the assay on NCI/ADR-RES ovarian; 1750 nM in the assay with SK-MEL-28 melanoma; 1660 nM in the assay with UACC-62 melanoma. The TGI in the assay with OVCAR-3 ovarian was 3.05 µM; in the assay with TK-10 renal, 3.45 µM; with HCC-2998 colon, 1.99 µM; in the assay on NCI/ADR-RES ovarian it was 63.5 µM; in the assay on SK-MEL-28 melanoma, 3.21 µM; with UACC-62 melanoma, 3.1 µM.
Take `COc1cc(C2(C)SCCCS2)c(I)c(OC)c1OC`: the TGI with COLO 205 colon, with OVCAR-5 ovarian, in the assay on OVCAR-3 ovarian, in the assay with SNB-75 CNS, with TK-10 renal and in the assay with HCC-2998 colon was over 100 µM each time. The TGI in the assay on SK-MEL-28 melanoma and in the assay with UACC-62 melanoma was over 100 µM each time.
As for `O=C(O)CCCc1ccc2c(c1)CC1(C2)Cc2ccc(CCCC(=O)O)cc2C1`, the TGI with COLO 205 colon, in the assay with OVCAR-5 ovarian, in the assay with OVCAR-3 ovarian, in the assay on TK-10 renal, in the assay with HCC-2998 colon and in the assay on NCI/ADR-RES ovarian was over 100 µM each time. For the same compound, the TGI in the assay on UACC-62 melanoma is over 100 µM.
`c1ccc(-c2[nH]c(-c3ccccc3)c(-c3cnccn3)c2-c2cnccn2)cc1`: the TGI in the assay on COLO 205 colon, in the assay on OVCAR-5 ovarian, in the assay with OVCAR-3 ovarian, in the assay with SNB-75 CNS, with TK-10 renal and in the assay on HCC-2998 colon was over 100 µM throughout. In addition, the TGI in the assay with SK-MEL-28 melanoma and in the assay on UACC-62 melanoma was over 100 µM each time.
Regarding `O=C1OC2C=CC1C1(CCOC1=O)C2` (centres undefined), the TGI in the assay with COLO 205 colon, in the assay on OVCAR-5 ovarian, with OVCAR-3 ovarian, in the assay on SNB-75 CNS, in the assay on TK-10 renal and in the assay with HCC-2998 colon was over 100 µM in each case. Further, the TGI in the assay with SK-MEL-28 melanoma was over 100 µM; with UACC-62 melanoma, 94.6 µM.
For `CC(=O)O[C@H]1C(=O)[C@@]2(C)C(C(OC(=O)c3ccccc3)[C@]3(O)CC(OC(=O)C(O)C(NC(=O)c4ccccc4)c4ccc(C)cc4)C(C)=C1C3(C)C)[C@]1(OC(C)=O)CO[C@@H]1C[C@@H]2O` (some centres undefined), the TGI in the assay with COLO 205 colon was 0.407 µM; in the assay on OVCAR-5 ovarian it was 0.237 µM; with SNB-75 CNS, 1.31 µM; with TK-10 renal, over 25 µM; with UACC-62 melanoma, 6.51 µM.
As for `CC(=O)Nc1ccc(/C=C(\NC(=O)c2ccccc2)C(=O)NNS(=O)(=O)c2ccc(C)cc2)cc1`, the TGI in the assay on COLO 205 colon was 71.2 µM; in the assay with OVCAR-5 ovarian, over 100 µM; in the assay on OVCAR-3 ovarian, over 100 µM; with SNB-75 CNS it was over 100 µM; in the assay on TK-10 renal it was over 100 µM; in the assay on HCC-2998 colon, over 100 µM. Besides, the TGI with SK-MEL-28 melanoma and in the assay on UACC-62 melanoma was over 100 µM in each case.
Turning to `COc1cccc2c1[C@]1(O)C(O)CCCC21` (some centres undefined), the TGI with COLO 205 colon, in the assay with OVCAR-5 ovarian, in the assay on OVCAR-3 ovarian, in the assay on SNB-75 CNS, with TK-10 renal and in the assay on HCC-2998 colon was over 100 µM throughout. In addition, the TGI in the assay on SK-MEL-28 melanoma and in the assay on UACC-62 melanoma was over 100 µM throughout.
